Test results from PubChem BioAssay (NCI).
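Test compounds were applied to cells in 96-well plates for 48 hours at 5 doses. Abbreviation: GI50, concentration required for 50% inhibition of growth. TGI: concentration producing complete growth inhibition.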

Assays:
Experiment in all cases: DTP human tumour cell line panel, 48 h
HCT-116 colon = system: HCT-116 colon
SK-MEL-2 melanoma = system: SK-MEL-2 melanoma
T-47D breast = system: T-47D breast
HL-60(TB) leukemia = system: HL-60(TB) leukemia
SF-268 CNS = system: SF-268 CNS
SF-539 CNS = system: SF-539 CNS
NCI-H460 lung = system: NCI-H460 lung
RPMI-8226 leukemia = system: RPMI-8226 leukemia
HOP-92 NSCLC = system: HOP-92 NSCLC
MDA-MB-231 breast = system: MDA-MB-231 breast
NCI/ADR-RES ovarian = system: NCI/ADR-RES ovarian
SK-MEL-5 melanoma = system: SK-MEL-5 melanoma
BT-549 breast = system: BT-549 breast
HT29 colon = system: HT29 colon
TK-10 renal = system: TK-10 renal
M14 melanoma = system: M14 melanoma
SNB-75 CNS = system: SNB-75 CNS
A498 renal = system: A498 renal
786-0 renal = system: 786-0 renal
IGROV1 ovarian = system: IGROV1 ovarian
NCI-H226 lung = system: NCI-H226 lung
SR leukemia = system: SR leukemia
CAKI-1 renal = system: CAKI-1 renal
HCT-15 colon = system: HCT-15 colon
OVCAR-3 ovarian = system: OVCAR-3 ovarian
COLO 205 colon = system: COLO 205 colon
NCI-H23 lung = system: NCI-H23 lung
HOP-62 NSCLC = system: HOP-62 NSCLC
PC-3 prostate = system: PC-3 prostate

Q: How did the GI50 (HCT-116 colon) turn out when `O=C1C=C[C@]2(C[C@@H](c3cccc(C(F)(F)F)c3)O[C@@H](c3cccc(C(F)(F)F)c3)O2)O1` was run?
A: 1080 nM

Q: What about the TGI (HCT-116 colon) of the same compound?
A: 2640 nM

Q: What about the GI50 (SK-MEL-2 melanoma) of the same compound?
A: 2210 nM

Q: And the TGI (SK-MEL-2 melanoma)?
A: 6540 nM

Q: And the GI50 (T-47D breast)?
A: 1100 nM

Q: And the TGI (T-47D breast)?
A: 3960 nM

Q: What about the GI50 (HL-60(TB) leukemia) of the same compound?
A: 1880 nM

Q: What about the TGI (HL-60(TB) leukemia) of the same compound?
A: 8340 nM

Q: And the GI50 (SF-268 CNS)?
A: 1500 nM

Q: And the TGI (SF-268 CNS)?
A: 4140 nM

Q: And the GI50 (SF-539 CNS)?
A: 1430 nM

Q: What about the TGI (SF-539 CNS) of the same compound?
A: 3310 nM

Q: And the GI50 (NCI-H460 lung)?
A: 600 nM

Q: And the TGI (NCI-H460 lung)?
A: 2580 nM

Q: What about the GI50 (RPMI-8226 leukemia) of the same compound?
A: 1120 nM

Q: What about the TGI (RPMI-8226 leukemia) of the same compound?
A: 5970 nM

Q: What about the GI50 (HOP-92 NSCLC) of the same compound?
A: 1970 nM

Q: And the TGI (HOP-92 NSCLC)?
A: 6600 nM

Q: And the GI50 (MDA-MB-231 breast)?
A: 2150 nM

Q: And the TGI (MDA-MB-231 breast)?
A: 6290 nM

Q: What about the GI50 (NCI/ADR-RES ovarian) of the same compound?
A: 1900 nM

Q: What about the TGI (NCI/ADR-RES ovarian) of the same compound?
A: 6620 nM

Q: What about the GI50 (SK-MEL-5 melanoma) of the same compound?
A: 1800 nM

Q: What about the TGI (SK-MEL-5 melanoma) of the same compound?
A: 3720 nM

Q: And the GI50 (BT-549 breast)?
A: 1920 nM

Q: And the TGI (BT-549 breast)?
A: 4820 nM

Q: What about the GI50 (HT29 colon) of the same compound?
A: 2120 nM

Q: What about the TGI (HT29 colon) of the same compound?
A: 5520 nM

Q: And the GI50 (TK-10 renal)?
A: 1660 nM

Q: What about the TGI (TK-10 renal) of the same compound?
A: 3220 nM

Q: And the GI50 (M14 melanoma)?
A: 4110 nM

Q: And the TGI (M14 melanoma)?
A: 23700 nM

Q: What about the GI50 (SNB-75 CNS) of the same compound?
A: 2790 nM

Q: And the TGI (SNB-75 CNS)?
A: 16100 nM

Q: What about the GI50 (A498 renal) of the same compound?
A: 1810 nM

Q: What about the TGI (A498 renal) of the same compound?
A: 9210 nM

Q: And the GI50 (786-0 renal)?
A: 1350 nM

Q: And the TGI (786-0 renal)?
A: 2950 nM

Q: What about the GI50 (IGROV1 ovarian) of the same compound?
A: 1660 nM

Q: And the TGI (IGROV1 ovarian)?
A: 4410 nM

Q: What about the GI50 (NCI-H226 lung) of the same compound?
A: 2180 nM

Q: What about the TGI (NCI-H226 lung) of the same compound?
A: 10500 nM

Q: And the GI50 (SR leukemia)?
A: 674 nM

Q: What about the TGI (SR leukemia) of the same compound?
A: 5400 nM

Q: What about the GI50 (CAKI-1 renal) of the same compound?
A: 2950 nM

Q: And the TGI (CAKI-1 renal)?
A: 12400 nM

Q: And the GI50 (HCT-15 colon)?
A: 1660 nM

Q: And the TGI (HCT-15 colon)?
A: 4130 nM

Q: What about the GI50 (OVCAR-3 ovarian) of the same compound?
A: 1600 nM

Q: And the TGI (OVCAR-3 ovarian)?
A: 3710 nM

Q: And the GI50 (COLO 205 colon)?
A: 1880 nM

Q: And the TGI (COLO 205 colon)?
A: 5510 nM

Q: And the GI50 (NCI-H23 lung)?
A: 4030 nM

Q: What about the TGI (NCI-H23 lung) of the same compound?
A: 18700 nM

Q: And the GI50 (HOP-62 NSCLC)?
A: 5080 nM

Q: And the TGI (HOP-62 NSCLC)?
A: 18200 nM

Q: What about the GI50 (PC-3 prostate) of the same compound?
A: 2400 nM
